Laboratory results reported in EPA's ToxValDB 9.5 (doi:10.2903/j.efsa.2005.15r).
In brackets after ≈: the same amount, converted by molar mass.

Columns and labels:
[1] = system: Anas platyrhynchos
[2] = system: Oncorhynchus mykiss
[3] = system: Daphnia magna
[4] = system: Bird; conditions: acute; oral; unspecified; mortality
[5] = system: Rattus norvegicus
[6] = system: Typhlodromus pyri; conditions: not reported; mortality
[7] = system: Aphidius rhopalosiphi; conditions: not reported; mortality
[8] = system: Apis mellifera; conditions: acute, duration: 48 hours, mortality
[9] = system: Oryctolagus sp.; conditions: reproduction developmental; mortality
[10] = chronic/long-term, duration: 21 days

COC(=O)c1ccccc1S(=O)(=O)NC(=O)N(C)c1nc(C)nc(OC)n1 [Tribenuron-methyl]
NOAEL ([1]; reproductive): 21 mg/kg-day | LC50 ([1]; short-term, oral, feed, mortality): > 974 mg/kg-day | LC50 ([2]; acute, duration: 96 hours, mortality): 738 µg/mL (≈ 1870 µM) | NOEC [2, 10]: 560 mg/L | LC50 ([3]; acute, duration: 48 hours, mortality): > 894 µg/mL | NOEC [3, 10]: 120 mg/L | LD50 [4]: > 2250 mg/kg | LD50 ([5]; acute, oral, mortality): > 5000 mg/kg | NOAEL ([5]; chronic, duration: 2 years, body weight): 1 mg/kg-day | NOAEL ([5]; reproduction developmental, reproduction): 19 mg/kg-day | NOAEL ([5]; subchronic, duration: 90 days, oral, body weight): 7 mg/kg-day | LEL [6]: 30 g/ha | LEL [7]: 30 g/ha | LD50 ([8]; dermal): > 98.4 µg/piece | LD50 ([8]; oral, unspecified): > 9.1 µg/piece | NOAEL [9]: 20 mg/kg-day
